Source: patent publication US20120164083A1, “Sweetness Enhancers Including Rebaudioside A or D” (Redpoint Bio Corporation, priority 2009, published 2012)
Values joined by “and” are separate entries in the source; they are usually repeats but may differ in a detail not shown here. Identical values can stand only once. “Also recorded” adds a separate entry of the source.

Assays:
Format in all cases: in vivo, human
subjects = test: qualitative taste evaluation of Reb C water solutions (forced-choice and open report, Example 3); conditions: for qualitative taste description: one line per subject
Procedure: Subjects were asked to sip most or all of the 10 ml from the first cup, swish the liquid in their oral cavity, and expectorate into a cup, then rinse their mouths vigorously with water. Soon thereafter, the contents of the second cup were sampled in the same manner. Then, subjects were asked to choose the sweeter of the two samples, or if not sweet, to describe the qualitative taste profile of the sample having a detectable taste. […] The subjects have the following qualitative taste descriptions: […]

expert taste panel [1] = test: double-blind controlled sweetness intensity test in iced tea, taste and swallow (Example 6 protocol)
Procedure: The sweetness enhancing effect of 300 μM Reb C (Chromadex, CA; purity 94.9%; […]) (equivalent to the sweetness intensity of an 8% (w/v-%) sucrose solution) was evaluated in a double-blind controlled test conducted according to the following protocol. Three products were evaluated by trained judges as follows: • high concentration HFCS (14.29% w/v; equivalent to 11% w/v sucrose solution) • low concentration HFCS (10.39% w/v; equivalent to 8% w/v sucrose solution) • low concentration HFCS+sweetness enhancer (test compound)
(§1) The products were evaluated using a sequential monadic test protocol. Subjects were given three 10 ml samples to evaluate. Each subject was directed to taste and swallow each sample and then assess the sweetness intensity of the sample. The intensity was rated on a score card by marking a numerical value along a scale from 0 to 8 (e.g., 0=none, 2=slight, 4=definite, 8=very strong). Following the decision regarding the sweetness intensity, subjects were instructed to vigorously rinse their mouth with water. Subjects then were given unsalted crackers to cleanse the palate. A period of 10 minutes elapsed between presentations of each sample to reduce the potential influence of residual taste effects. A second sample was then presented and evaluated as above and the same procedure was followed until all three products were evaluated. […]

panelists = test: quantitative flavor profile by trained panelists (Example 11)
Procedure: The taste of 150, 300, and 600 μM Reb C was evaluated by a test group. 10 panelists were trained over a period of a few weeks to provide a quantitative flavor profile of Reb C. Panelists first were trained using standard tastants representing the different taste modalities given in FIG. 10 (i.e., sweet, bitter, salt, sour, and licorice). They then were trained to use the scales when flavors were mixed together. All intensity ratings are on scales ranging from 0 (no taste) to 8 (highest intensity). The intensity rating for sweet is essentially the same as used in Examples 1 and 6. The taste profiles were obtained for 150, 300, and 600 μM Reb C. Reb A (0.2 mg/ml, a concentration used in some food/beverage applications for sweetening) was also evaluated in the test for comparison. The scale is not linear at the bottom. A rating of 1 is around the threshold for sweetness detection.

expert taste panel [2] = test: double-blind controlled sweetness intensity test of solutions, sequential monadic, sip and spit (Example 1 protocol); conditions: for sweetness of the solution compared with 7% (w/v-%) fructose solution: 300 μM in 5% (w/v-%) fructose solution; for sweetness of the solution compared with 7% (w/v-%) sucrose solution: 300 μM in 5% (w/v-%) sucrose solution, 20 judges; for mean sweetness intensity score: scale 0 to 8
expert taste panel [3] = test: double-blind controlled sweetness intensity test of enhancer combinations, taste and swallow (Example 12 protocol); conditions: 5% (w/v-%) sucrose solution alone; scale 0 to 8
Procedure: The sweetness enhancing effect of the combination of 40 μM Reb A (purity>95%) and 300 μM Reb C (Chromadex, CA; purity 94.9%; 2.9% impurities other than water) on 5% (w/v-%) sucrose solution was evaluated in a double-blind controlled test conducted according to the following protocol. Four products were evaluated by trained judges as follows: • low concentration sucrose (5% w/v) • low concentration sucrose+sweetness enhancer 1 (40 μM Reb A) • low concentration sucrose+sweetness enhancer 2 (300 μM Reb C) • low concentration sucrose+sweetness enhancer 1+sweetness enhancer 2
as §1, with “A period of 10 minutes elapsed between presentations of each sample to reduce the potential influence of residual taste effects.” left out

[4] = 250 μM water solution, five subjects
[5] = 300 μM in 8% (w/v-%) sucrose solution

rebaudioside C [Reb C]
forced-choice identification of the sample against water (subjects; [4]): All subjects correctly identified the sample containing Reb C
qualitative taste description (subjects; [4]): Metallic, not sweet; also recorded: Aversive (“Nasty”); also recorded: Slight sweet, astringent; also recorded: Faintly sweet; also recorded: Slight sweet/licorice
qualitative taste description (subjects; 250 and 300 μM in water, four subjects): Both concentrations bitter and/or licorice
sweetness compared with 8% and 11% (w/v-%) sucrose (expert taste panel [1]; 300 μM in iced tea with 8% (w/v-%) sucrose): between that of the 8% (w/v-%) solution and that of an 11% (w/v-%) sucrose solution
sweetness compared with 14.29% (w/v-%) HFCS solution (equivalent to 11% sucrose) (expert taste panel [1]; 300 μM in iced tea with 10.39% (w/v-%) HFCS): indistinguishable from that of a 14.29% (w/v-%) HFCS solution
unpleasant tastes, bitter and licorice (panelists; 150, 300 and 600 μM alone): barely detected
intrinsic sweetness (panelists; 150, 300 and 600 μM, scale 0 to 8): little or no intrinsic sweetness
unpleasant tastes, bitter and licorice (panelists; combined with sugar): undetected
sweetness of the solution compared with 8% and 11% (w/v-%) sucrose solutions (expert taste panel [2]; 150 μM in 8% (w/v-%) sucrose solution): between that of the 8% (w/v-%) sucrose solution and that of an 11% (w/v-%) sucrose solution
sweetness of the solution compared with 7% (w/v-%) fructose solution (expert taste panel [2]): close to that of a 7% (w/v-%) fructose solution
sweetness of the solution compared with 7% (w/v-%) sucrose solution (expert taste panel [2]): indistinguishable from that of a 7% (w/v-%) sucrose solution
sweetness of the solution compared with 11% (w/v-%) sucrose solution (expert taste panel [2]; [5]): close to that of an 11% (w/v-%) sucrose solution
mean sweetness intensity score (expert taste panel [2]; 8% (w/v-%) sucrose solution with 150 μM Reb C): 6.10

C=C1C[C@@]23CC[C@H]4[C@@](C)(CCC[C@@]4(C)C(=O)O[C@@H]4O[C@H](CO)[C@@H](O)[C@H](O)[C@H]4O)[C@@H]2CC[C@]1(O[C@@H]1O[C@H](CO)[C@@H](O)[C@H](O)[C@H]1O[C@@H]1O[C@@H](C)[C@H](O)[C@@H](O)[C@H]1O)C3 [Dulc A, dulcoside A]
sweetness of the solution compared with 7% (w/v-%) fructose solution (expert taste panel [2]): achieved that of a 7% (w/v-%) fructose solution
sweetness of the solution compared with 7% (w/v-%) sucrose solution (expert taste panel [2]): achieved that of a 7% (w/v-%) sucrose solution
off-tastes (expert taste panel [2]; [5]): No off-tastes were detected
sweetness of the solution compared with 11% (w/v-%) sucrose solution (expert taste panel [2]; [5]): approached that of an 11% (w/v-%) sucrose solution
mean sweetness intensity score (expert taste panel [2]; 8% (w/v-%) sucrose solution with 300 μM Dulc A): 6.3

OC[C@H]1O[C@@](CO)(O[C@H]2O[C@H](CO)[C@@H](O)[C@H](O)[C@H]2O)[C@@H](O)[C@@H]1O [sucrose, α-D-glucopyranosyl-(1→2)-β-D-fructofuranose, reference compound]
mean sweetness intensity (expert taste panel [3]): about 4
mean sweetness intensity score (expert taste panel [2]; 8% (w/v-%) sucrose solution alone): 5.30 and 5.0
mean sweetness intensity score (expert taste panel [2]; 11% (w/v-%) sucrose solution alone): 6.95 and 6.7
